# Reference: patent publication US20230085307A1, “PYRIDAZINONE COMPOUND AND HERBICIDE” (NISSAN CHEMICAL CORPORATION, priority 2019, published 2023)
# Test system: barnyard grass
# Test: Test Example 4: herbicidal effect by soil treatment (Table 19, symbol H)
# Format: in vivo, barnyard grass (Echinochloa crus-galli)
# Conditions: amount of applied herbicide 320 g/ha
# How it was run: (§1)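 Three weeks of greenhouse growth at 25° C. to 30° C. followed a uniform surface spray of water-diluted emulsion at a predetermined herbicide amount. Seeds had been sown beforehand under about 1.5 cm of sterilized diluvial soil. Grading followed criteria set out in an earlier test.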
SMILES,"H: barnyard grass, herbicidal effect grade","herbicidal effect, H: barnyard grass"
CCOc1ccccc1-c1sc2cc(C)ccc2c1-c1c(O)c(C)nn(C)c1=O [3-053],0 (Herbicidal rate of 5% or less (almost no effect)),
CCCC(=O)Oc1c(C)nn(C)c(=O)c1-c1c(-c2ccc3c(c2)OCCO3)sc2cc(F)ccc12 [3-014],,0 (Herbicidal rate of 5% or less (almost no effect))
CCOc1ccc(-c2sc3cc(OC)ccc3c2-c2c(O)c(C)nn(C)c2=O)cc1 [3-072],0 (Herbicidal rate of 5% or less (almost no effect)),

# Test system: persian speedwell
# Test: Test Example 5: herbicidal effect by foliage application, plastic box (Table 20, symbol R)
# Format: in vivo, Persian speedwell (Veronica persica)
# Conditions: foliage application, 320 g/ha, three weeks after application
# How it was run: (§2)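 Plants sown in sterilized diluvial soil and grown 14 days in a greenhouse at 25° C to 30° C, then sprayed on the foliage with the compound's emulsion diluted in water to a predetermined herbicide amount. Injury to weeds and crops scored three weeks after application on a visual rating scale.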
row,SMILES,"R: persian speedwell, herbicidal effect grade"
1,CCOc1ccccc1-c1sc2cc(C)ccc2c1-c1c(O)c(C)nn(C)c1=O [3-053],5 (Herbicidal rate of 90% or more (almost completely withered))
2,CCCC(=O)Oc1c(C)nn(C)c(=O)c1-c1c(-c2ccc3c(c2)OCCO3)sc2cc(F)ccc12 [3-014],5 (Herbicidal rate of 90% or more (almost completely withered))
3,CCOc1ccc(-c2sc3cc(OC)ccc3c2-c2c(O)c(C)nn(C)c2=O)cc1 [3-072],5 (Herbicidal rate of 90% or more (almost completely withered))

# Test system: false cleavers
# Test: Test Example 5: herbicidal effect by foliage application, plastic box (Table 20, symbol Q)
# Format: in vivo, false cleavers (Galium spurium)
# Conditions: foliage application, 320 g/ha, three weeks after application
# How it was run: as §2
row,SMILES,"Q: false cleavers, herbicidal effect grade"
1,CCOc1ccccc1-c1sc2cc(C)ccc2c1-c1c(O)c(C)nn(C)c1=O [3-053],5 (Herbicidal rate of 90% or more (almost completely withered))
2,CCCC(=O)Oc1c(C)nn(C)c(=O)c1-c1c(-c2ccc3c(c2)OCCO3)sc2cc(F)ccc12 [3-014],4 (Herbicidal rate of 70% or more and less than 90%)
3,CCOc1ccc(-c2sc3cc(OC)ccc3c2-c2c(O)c(C)nn(C)c2=O)cc1 [3-072],5 (Herbicidal rate of 90% or more (almost completely withered))

# Test system: chickweed
# Test: Test Example 4: herbicidal effect by soil treatment (Table 19, symbol P)
# Format: in vivo, common chickweed (Stellaria media)
# Conditions: amount of applied herbicide 320 g/ha
# How it was run: as §1
SMILES,"P: chickweed, herbicidal effect grade","herbicidal effect, P: chickweed"
CCOc1ccccc1-c1sc2cc(C)ccc2c1-c1c(O)c(C)nn(C)c1=O [3-053],4 (Herbicidal rate of 70% or more and less than 90%),
CCCC(=O)Oc1c(C)nn(C)c(=O)c1-c1c(-c2ccc3c(c2)OCCO3)sc2cc(F)ccc12 [3-014],,4 (Herbicidal rate of 70% or more and less than 90%)
CCOc1ccc(-c2sc3cc(OC)ccc3c2-c2c(O)c(C)nn(C)c2=O)cc1 [3-072],5 (Herbicidal rate of 90% or more (almost completely withered)),

# Test system: rice flat sedge
# Test: Test Example 3: herbicidal effect by foliage application, Wagner pot (Table 18, symbol E)
# Format: in vivo, rice flat sedge (Cyperus iria)
# Conditions: 320 g/ha
# How it was run: (§3)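 Plants were sown in alluvial soil held under 0.1–0.5 cm standing water and grown 14 days in a greenhouse at 25–30 °C. An emulsifiable formulation, water-diluted to the set dose, was then sprayed onto the foliage, and effects were scored three weeks later using previously defined criteria.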
row,SMILES,herbicidal effect on rice flat sedge (E)
1,CCOc1ccccc1-c1sc2cc(C)ccc2c1-c1c(O)c(C)nn(C)c1=O [3-053],5 (Herbicidal rate of 90% or more (almost completely withered))
2,CCOc1ccc(-c2sc3cc(OC)ccc3c2-c2c(O)c(C)nn(C)c2=O)cc1 [3-072],4 (Herbicidal rate of 70% or more and less than 90%)

# Same assay, conditions: amount of applied herbicide 320 g/ha
row,SMILES,herbicidal effect on E: rice flat sedge
1,CCCC(=O)Oc1c(C)nn(C)c(=O)c1-c1c(-c2ccc3c(c2)OCCO3)sc2cc(F)ccc12 [3-014],4 (Herbicidal rate of 70% or more and less than 90%)

# Test system: southern crabgrass
# Test: Test Example 4: herbicidal effect by soil treatment (Table 19, symbol F)
# Format: in vivo, southern crabgrass (Digitaria ciliaris)
# Conditions: amount of applied herbicide 320 g/ha
# How it was run: as §1
SMILES,"F: southern crabgrass, herbicidal effect grade","herbicidal effect, F: southern crabgrass"
CCOc1ccccc1-c1sc2cc(C)ccc2c1-c1c(O)c(C)nn(C)c1=O [3-053],5 (Herbicidal rate of 90% or more (almost completely withered)),
CCCC(=O)Oc1c(C)nn(C)c(=O)c1-c1c(-c2ccc3c(c2)OCCO3)sc2cc(F)ccc12 [3-014],,0 (Herbicidal rate of 5% or less (almost no effect))
CCOc1ccc(-c2sc3cc(OC)ccc3c2-c2c(O)c(C)nn(C)c2=O)cc1 [3-072],0 (Herbicidal rate of 5% or less (almost no effect)),

# Test system: redroot pigweed
# Test: Test Example 5: herbicidal effect by foliage application, plastic box (Table 20, symbol N)
# Format: in vivo, redroot pigweed (Amaranthus retroflexus)
# Conditions: foliage application, 320 g/ha, three weeks after application
# How it was run: as §2
row,SMILES,"N: redroot pigweed, herbicidal effect grade"
1,CCOc1ccccc1-c1sc2cc(C)ccc2c1-c1c(O)c(C)nn(C)c1=O [3-053],5 (Herbicidal rate of 90% or more (almost completely withered))
2,CCCC(=O)Oc1c(C)nn(C)c(=O)c1-c1c(-c2ccc3c(c2)OCCO3)sc2cc(F)ccc12 [3-014],5 (Herbicidal rate of 90% or more (almost completely withered))
3,CCOc1ccc(-c2sc3cc(OC)ccc3c2-c2c(O)c(C)nn(C)c2=O)cc1 [3-072],5 (Herbicidal rate of 90% or more (almost completely withered))

# Test system: oval-leafed pondweed
# Test: Test Example 1: herbicidal activity, application before weed generation under submerged conditions (Table 16, symbol C)
# Format: in vivo, oval-leafed pondweed (Monochoria vaginalis)
# Conditions: amount of applied herbicide 320 g/ha
# How it was run: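 Submerged Wagner pots (alluvial soil, 4 cm water) sown with weed seeds and planted with 2.5-leaf rice seedlings; emulsifiable concentrate diluted in water applied to water surface on sowing day. Held in greenhouse at 25-30 °C; injury scored 0-5 by herbicidal rate after three weeks.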
row,SMILES,"Herbicidal effect, C: oval-leafed pondweed"
1,CCOc1ccccc1-c1sc2cc(C)ccc2c1-c1c(O)c(C)nn(C)c1=O [3-053],4 (Herbicidal rate of 70% or more and less than 90%)
2,CCCC(=O)Oc1c(C)nn(C)c(=O)c1-c1c(-c2ccc3c(c2)OCCO3)sc2cc(F)ccc12 [3-014],5 (Herbicidal rate of 90% or more (almost completely withered))
3,CCOc1ccc(-c2sc3cc(OC)ccc3c2-c2c(O)c(C)nn(C)c2=O)cc1 [3-072],4 (Herbicidal rate of 70% or more and less than 90%)

# Test system: false cleavers
# Test: Test Example 4: herbicidal effect by soil treatment (Table 19, symbol Q)
# Format: in vivo, false cleavers (Galium spurium)
# Conditions: amount of applied herbicide 320 g/ha
# How it was run: as §1
SMILES,"Q: false cleavers, herbicidal effect grade","herbicidal effect, Q: false cleavers"
CCOc1ccccc1-c1sc2cc(C)ccc2c1-c1c(O)c(C)nn(C)c1=O [3-053],5 (Herbicidal rate of 90% or more (almost completely withered)),
CCCC(=O)Oc1c(C)nn(C)c(=O)c1-c1c(-c2ccc3c(c2)OCCO3)sc2cc(F)ccc12 [3-014],,2 (Herbicidal rate of 20% or more and less than 40%)
CCOc1ccc(-c2sc3cc(OC)ccc3c2-c2c(O)c(C)nn(C)c2=O)cc1 [3-072],1 (Herbicidal rate of 5% or more and less than 20%),

# Test system: Chinese sprangletop
# Test: Test Example 3: herbicidal effect by foliage application, Wagner pot (Table 18, symbol D)
# Format: in vivo, chinese sprangletop (Leptochloa chinensis)
# Conditions: 320 g/ha
# How it was run: as §3
row,SMILES,herbicidal effect on Chinese sprangletop (D)
1,CCOc1ccccc1-c1sc2cc(C)ccc2c1-c1c(O)c(C)nn(C)c1=O [3-053],4 (Herbicidal rate of 70% or more and less than 90%)
2,CCOc1ccc(-c2sc3cc(OC)ccc3c2-c2c(O)c(C)nn(C)c2=O)cc1 [3-072],3 (Herbicidal rate of 40% or more and less than 70%)

# Same assay, conditions: amount of applied herbicide 320 g/ha
row,SMILES,herbicidal effect on D: Chinese sprangletop
1,CCCC(=O)Oc1c(C)nn(C)c(=O)c1-c1c(-c2ccc3c(c2)OCCO3)sc2cc(F)ccc12 [3-014],0 (Herbicidal rate of 5% or less (almost no effect))

# Test system: lambsquarters
# Test: Test Example 5: herbicidal effect by foliage application, plastic box (Table 20, symbol O)
# Format: in vivo, lambsquarters (Chenopodium album)
# Conditions: foliage application, 320 g/ha, three weeks after application
# How it was run: as §2
row,SMILES,"O: lambsquarters, herbicidal effect grade"
1,CCOc1ccccc1-c1sc2cc(C)ccc2c1-c1c(O)c(C)nn(C)c1=O [3-053],5 (Herbicidal rate of 90% or more (almost completely withered))
2,CCCC(=O)Oc1c(C)nn(C)c(=O)c1-c1c(-c2ccc3c(c2)OCCO3)sc2cc(F)ccc12 [3-014],5 (Herbicidal rate of 90% or more (almost completely withered))
3,CCOc1ccc(-c2sc3cc(OC)ccc3c2-c2c(O)c(C)nn(C)c2=O)cc1 [3-072],5 (Herbicidal rate of 90% or more (almost completely withered))

# Test system: barnyard grass
# Test: Test Example 3: herbicidal effect by foliage application, Wagner pot (Table 18, symbol H)
# Format: in vivo, barnyard grass (Echinochloa crus-galli)
# Conditions: 320 g/ha
# How it was run: as §3
row,SMILES,herbicidal effect on barnyard grass (H)
1,CCOc1ccccc1-c1sc2cc(C)ccc2c1-c1c(O)c(C)nn(C)c1=O [3-053],5 (Herbicidal rate of 90% or more (almost completely withered))
2,CCOc1ccc(-c2sc3cc(OC)ccc3c2-c2c(O)c(C)nn(C)c2=O)cc1 [3-072],4 (Herbicidal rate of 70% or more and less than 90%)

# Same assay, conditions: amount of applied herbicide 320 g/ha
row,SMILES,herbicidal effect on H: barnyard grass
1,CCCC(=O)Oc1c(C)nn(C)c(=O)c1-c1c(-c2ccc3c(c2)OCCO3)sc2cc(F)ccc12 [3-014],5 (Herbicidal rate of 90% or more (almost completely withered))

# Test system: late watergrass
# Test: Test Example 2: herbicidal activity, application during weed generation under submerged conditions (Table 17, symbol A)
# Format: in vivo, late watergrass (Echinochloa oryzicola)
# Conditions: AAH 320 g/ha; application during weed generation, submerged conditions
# How it was run: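 In this pot test, flooded alluvial soil (water depth 4 cm) holds all three species sown as a mixture. Once seedlings have one to two leaves, the compound's emulsion, thinned with water to the intended dose, is poured on the water; grading follows after three weeks on the earlier criteria.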
row,SMILES,"herbicidal effect rating, A: late watergrass"
1,CCOc1ccccc1-c1sc2cc(C)ccc2c1-c1c(O)c(C)nn(C)c1=O [3-053],3 (Herbicidal rate of 40% or more and less than 70%)
2,CCCC(=O)Oc1c(C)nn(C)c(=O)c1-c1c(-c2ccc3c(c2)OCCO3)sc2cc(F)ccc12 [3-014],3 (Herbicidal rate of 40% or more and less than 70%)
3,CCOc1ccc(-c2sc3cc(OC)ccc3c2-c2c(O)c(C)nn(C)c2=O)cc1 [3-072],3 (Herbicidal rate of 40% or more and less than 70%)

# Test system: windgrass
# Test: Test Example 4: herbicidal effect by soil treatment (Table 19, symbol L)
# Format: in vivo, windgrass (Apera spica-venti)
# Conditions: amount of applied herbicide 320 g/ha
# How it was run: as §1
SMILES,"L: windgrass, herbicidal effect grade","herbicidal effect, L: windgrass"
CCOc1ccccc1-c1sc2cc(C)ccc2c1-c1c(O)c(C)nn(C)c1=O [3-053],5 (Herbicidal rate of 90% or more (almost completely withered)),
CCCC(=O)Oc1c(C)nn(C)c(=O)c1-c1c(-c2ccc3c(c2)OCCO3)sc2cc(F)ccc12 [3-014],,0 (Herbicidal rate of 5% or less (almost no effect))
CCOc1ccc(-c2sc3cc(OC)ccc3c2-c2c(O)c(C)nn(C)c2=O)cc1 [3-072],0 (Herbicidal rate of 5% or less (almost no effect)),
